Target: T1, GLP-1 Receptor (Homo sapiens, UniProt P43220)
T1 construct: host or cells: HEK293/CRE-Luc (HEK293/GLP1R/CRE-LUC)
Test: GLP-1R agonist cAMP stimulation assay (HEK293/GLP1R/CRE-LUC cells, Cisbio cAMP dynamic 2 kit)
Assay type: cell-based
Settings: HEK293/CRE-Luc cells stably expressing the GLP-1 Receptor, 30 min at 37° C.
Description: Activation of GLP-1 receptor is known to stimulate cyclic AMP (cAMP) production in cells which indicates primary coupling to the Gas subunit of the G protein heterotrimeric complex.
To optimize functional activity directed toward Gas coupling, a HEK293/CRE-Luc cell line developed by HDB stably expressing the GLP-1 Receptor was used. 200× concentration of compound working solutions were prepared (Agilent Technologies Bravo) with ½ log serial dilution in 384-well Echo LDV plate (Labcyte, Cat #LP-0200). […] 200× concentration of compound working solutions were moved to 384-well white low volume plate (Greiner, Cat #784075) using Labcyte ECHO550. 1×10^5 cells/mL HEK293/GLP1R/CRE-LUC (HD Biosciences) cell suspensions prepared with assay buffer [DPBS containing 0.5 mM IBMX (Sigma, Cat #15879) and 0.1% BSA (GENVIEW, Cat #FA016-100g)], 10 μL cell suspensions were added to each well of previous generated assay plate which already contains […] compound at 200×concentration using ThermoFisher Multidrop Combi (1000 cells/well). Seal the plate and incubate at 37° C. with 5% CO2 for 30 min.
After incubation the cAMP assay signal was generated using cAMP dynamic 2 Kit (Cisbio). 5 μL cAMP-d2 working solution was added to each well, followed with 5 μL Anti-cAMP antibody-cryptate working solution added to each well using ThermoFisher Multidrop Combi. Incubate at room temperature for 1 hour protected from light. Read the fluorescence at 665 and 615 nm with Reader PerkinElmer EnVision.

T1 sequence (P43220 24-463, species assumed): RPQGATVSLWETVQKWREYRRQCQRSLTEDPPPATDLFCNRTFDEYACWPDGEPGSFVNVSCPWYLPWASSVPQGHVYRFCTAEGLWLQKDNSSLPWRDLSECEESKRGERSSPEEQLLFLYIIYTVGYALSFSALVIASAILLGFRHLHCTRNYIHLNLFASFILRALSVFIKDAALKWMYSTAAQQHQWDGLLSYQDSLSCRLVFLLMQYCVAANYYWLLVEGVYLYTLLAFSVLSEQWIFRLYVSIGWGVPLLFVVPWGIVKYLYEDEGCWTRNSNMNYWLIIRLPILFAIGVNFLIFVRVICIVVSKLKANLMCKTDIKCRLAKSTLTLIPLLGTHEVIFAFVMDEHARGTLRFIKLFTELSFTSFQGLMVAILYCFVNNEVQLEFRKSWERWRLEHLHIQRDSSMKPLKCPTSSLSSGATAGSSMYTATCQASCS

Compound: C[C@]1(c2ccc(Cl)cn2)Oc2cccc(C3CCN(Cc4nc5cc(-c6noc(=O)[nH]6)cc(F)c5n4C[C@@H]4CCO4)CC3)c2O1 [Compound 37, 3-(2-((4-((S)-2-(5-chloropyridin-2-yl)-2-methylbenzo[d][1,3]dioxol-4-yl)piperidin-1-yl)methyl)-7-fluoro-1-(((S)-oxetan-2-yl)methyl)-1H-benzo[d]imidazol-5-yl)-1,2,4-oxadiazol-5(4H)-one]
- EC50: 1 to 100 nM

Compound: O=c1[nH]c(-c2cc(F)c3c(c2)nc(CN2CCC(c4cccc(OCc5ccc(Cl)cc5F)n4)CC2)n3C[C@@H]2CCO2)no1 [Compound 38, (S)-3-(2-((4-(6-((4-chloro-2-fluorobenzyl)oxy)pyridin-2-yl)piperidin-1-yl)methyl)-7-fluoro-1-(oxetan-2-ylmethyl)-1H-benzo[d]imidazol-5-yl)-1,2,4-oxadiazol-5(4H)-one]
- EC50: 1 to 100 nM

Compound: CC1(c2ccc(Cl)cc2F)Oc2cccc(C3=CCN(Cc4nc5cc(-c6noc(=O)[nH]6)cc(F)c5n4C[C@@H]4CCO4)CC3)c2O1 (stereo partly drawn) [Compound 39, 3-(2-((4-(2-(4-chloro-2-fluorophenyl)-2-methylbenzo[d][1,3]dioxol-4-yl)-3,6-dihydropyridin-1(2H)-yl)methyl)-7-fluoro-1-(((S)-oxetan-2-yl)methyl)-1H-benzo[d]imidazol-5-yl)-1,2,4-oxadiazol-5(4H)-one]
- EC50: 1 to 100 nM

Compound: Cc1nnc(-c2ccc3c(nc(CN4CCC(c5cccc6c5O[C@@](C)(c5ccc(Cl)cc5F)O6)CC4)n3C[C@@H]3CCO3)c2F)[nH]1 [Compound 40, 2-((4-((S)-2-(4-chloro-2-fluorophenyl)-2-methylbenzo[d][1,3]dioxol-4-yl)piperidin-1-yl)methyl)-4-fluoro-5-(5-methyl-4H-1,2,4-triazol-3-yl)-1-(((S)-oxetan-2-yl)methyl)-1H-benzo[d]imidazole]
- EC50: < 1 nM

Compound: Cc1nnc(-c2cc(F)c3c(c2)nc(CN2CCC(c4cccc5c4O[C@@](C)(c4ccc(Cl)cc4F)O5)CC2)n3C[C@@H]2CCO2)[nH]1 [Compound 41, 2-((4-((S)-2-(4-chloro-2-fluorophenyl)-2-methylbenzo[d][1,3]dioxol-4-yl)piperidin-1-yl)methyl)-7-fluoro-5-(5-methyl-4H-1,2,4-triazol-3-yl)-1-(((S)-oxetan-2-yl)methyl)-1H-benzo[d]imidazole]
- EC50: < 1 nM

Compound: Cc1nnc(-c2cc(F)c3c(c2)nc(CN2CCC(c4cccc5c4O[C@@](C)(c4ccc(Cl)cn4)O5)CC2)n3C[C@@H]2CCO2)[nH]1 [Compound 42, 2-((4-((S)-2-(5-chloropyridin-2-yl)-2-methylbenzo[d][1,3]dioxol-4-yl)piperidin-1-yl)methyl)-7-fluoro-5-(5-methyl-4H-1,2,4-triazol-3-yl)-1-(((S)-oxetan-2-yl)methyl)-1H-benzo[d]imidazole]
- EC50: < 1 nM

Compound: Cc1nnc(-c2cc(F)c3c(c2)nc(CN2CC=C(c4cccc5c4OC(C)(c4ccc(Cl)cc4F)O5)CC2)n3C[C@@H]2CCO2)[nH]1 (stereo partly drawn) [Compound 43, 2-((4-(2-(4-chloro-2-fluorophenyl)-2-methylbenzo[d][1,3]dioxol-4-yl)-3,6-dihydropyridin-1(2H)-yl)methyl)-7-fluoro-5-(5-methyl-4H-1,2,4-triazol-3-yl)-1-(((S)-oxetan-2-yl)methyl)-1H-benzo[d]imidazole]
- EC50: 1 to 100 nM

Compound: C[C@]1(c2ccc(Cl)cc2F)Oc2cccc(C3=CCN(Cc4nc5cc(-c6nnc(C(F)(F)F)[nH]6)ncc5n4C[C@@H]4CCO4)CC3)c2O1 [Compound 44, 2-((4-((S)-2-(4-chloro-2-fluorophenyl)-2-methylbenzo[d][1,3]dioxol-4-yl)-3,6-dihydropyridin-1(2H)-yl)methyl)-3-(((S)-oxetan-2-yl)methyl)-6-(5-(trifluoromethyl)-4H-1,2,4-triazol-3-yl)-3H-imidazo[4,5-c]pyridine]
- EC50: < 1 nM

Compound: C[C@]1(c2ccc(Cl)cc2F)Oc2cccc(C3=CCN(Cc4nc5cc(-c6nnc(C(F)(F)F)[nH]6)cnc5n4C[C@@H]4CCO4)CC3)c2O1 [Compound 45, 2-((4-((S)-2-(4-chloro-2-fluorophenyl)-2-methylbenzo[d][1,3]dioxol-4-yl)-3,6-dihydropyridin-1(2H)-yl)methyl)-3-(((S)-oxetan-2-yl)methyl)-6-(5-(trifluoromethyl)-4H-1,2,4-triazol-3-yl)-3H-imidazo[4,5-b]pyridine]
- EC50: < 1 nM

Compound: C[C@]1(c2ccc(Cl)cc2F)Oc2cccc(C3=CCN(Cc4nc5cc(-c6nnc(C(F)(F)F)[nH]6)nnc5n4C[C@@H]4CCO4)CC3)c2O1 [Compound 46, 6-((4-((S)-2-(4-chloro-2-fluorophenyl)-2-methylbenzo[d][1,3]dioxol-4-yl)-3,6-dihydropyridin-1(2H)-yl)methyl)-7-(((S)-oxetan-2-yl)methyl)-3-(5-(trifluoromethyl)-4H-1,2,4-triazol-3-yl)-7H-imidazo[4,5-c]pyridazine]
- EC50: < 1 nM

Compound: Fc1cc(Cl)ccc1COc1ccc(F)c(C2CCN(Cc3nc4cc(-c5nnc(C(F)(F)F)[nH]5)ncc4n3C[C@@H]3CCO3)CC2)n1 [Compound 47, 6-[(4-chloro-2-fluorophenyl)methoxy]-3-fluoro-2-{1-[(3-{[(2S)-oxetan-2-yl]methyl}-6-[5-(trifluoromethyl)-4H-1,2,4-triazol-3-yl]-3H-imidazo[4,5-c]pyridin-2-yl)methyl]piperidin-4-yl}pyridine]
- EC50: < 1 nM

Compound: Fc1cc(Cl)ccc1COc1nc(N2CCN(Cc3nc4cc(-c5nnc(C(F)(F)F)[nH]5)ncc4n3C[C@@H]3CCO3)CC2)c(F)cc1F [Compound 48, 1-{6-[(4-chloro-2-fluorophenyl)methoxy]-3,5-difluoropyridin-2-yl}-4-[(3-{[(2S)-oxetan-2-yl]methyl}-6-[5-(trifluoromethyl)-4H-1,2,4-triazol-3-yl]-3H-imidazo[4,5-c]pyridin-2-yl)methyl]piperazine]
- EC50: < 1 nM

Compound: Fc1cc(Cl)ccc1COc1nc(C2CCN(Cc3nc4cc(-c5nnc(C(F)(F)F)[nH]5)ncc4n3C[C@@H]3CCO3)CC2)c(F)cc1F [Compound 49, 2-[(4-chloro-2-fluorophenyl)methoxy]-3,5-difluoro-6-{1-[(3-{[(2S)-oxetan-2-yl]methyl}-6-[5-(trifluoromethyl)-4H-1,2,4-triazol-3-yl]-3H-imidazo[4,5-c]pyridin-2-yl)methyl]piperidin-4-yl}pyridine]
- EC50: < 1 nM

Compound: Fc1cc(Cl)ccc1COc1nc(C2CCN(Cc3nc4cc(-c5nnc(C(F)(F)F)[nH]5)nnc4n3C[C@@H]3CCO3)CC2)c(F)cc1F [Compound 50, 2-[(4-chloro-2-fluorophenyl)methoxy]-3,5-difluoro-6-{1-[(7-{[(2S)-oxetan-2-yl]methyl}-3-[5-(trifluoromethyl)-4H-1,2,4-triazol-3-yl]-7H-imidazo[4,5-c]pyridazin-6-yl)methyl]piperidin-4-yl}pyridine]
- EC50: < 1 nM

Compound: O=C1CN(Cc2nc3cc(-c4nnc(C(F)(F)F)[nH]4)ncc3n2C[C@@H]2CCO2)CCN1c1ccc(F)c(OCc2ccc(Cl)cc2F)c1 [Compound 51, 1-{3-[(4-chloro-2-fluorophenyl)methoxy]-4-fluorophenyl}-4-[(3-{[(2S)-oxetan-2-yl]methyl}-6-[5-(trifluoromethyl)-4H-1,2,4-triazol-3-yl]-3H-imidazo[4,5-c]pyridin-2-yl)methyl]piperazin-2-one]
- EC50: < 1 nM

Compound: O=C1CN(Cc2nc3cc(-c4nnc(C(F)(F)F)[nH]4)ncc3n2C[C@@H]2CCO2)CCN1c1ccc(F)c(OCc2ccc(Cl)cc2F)n1 [Compound 52, 1-{6-[(4-chloro-2-fluorophenyl)methoxy]-5-fluoropyridin-2-yl}-4-[(3-{[(2S)-oxetan-2-yl]methyl}-6-[5-(trifluoromethyl)-4H-1,2,4-triazol-3-yl]-3H-imidazo[4,5-c]pyridin-2-yl)methyl]piperazin-2-one]
- EC50: < 1 nM

Compound: CC1(c2ccc(F)cc2F)Oc2cccc(C3CCN(Cc4nc5cc(-c6nnc(C(F)(F)F)[nH]6)cnc5n4C[C@@H]4CCO4)CC3)c2O1 (stereo partly drawn) [Compound 53, 4-[2-(2,4-difluorophenyl)-2-methyl-2H-1,3-benzodioxol-4-yl]-1-[(3-{[(2S)-oxetan-2-yl]methyl}-6-[5-(trifluoromethyl)-4H-1,2,4-triazol-3-yl]-3H-imidazo[4,5-b]pyridin-2-yl)methyl]piperidine]
- EC50: < 1 nM

Compound: CC1(c2ccc(F)cc2F)Oc2cccc(C3CCN(Cc4nc5cc(-c6nnc(C(F)(F)F)[nH]6)ncc5n4C[C@@H]4CCO4)CC3)c2O1 (stereo partly drawn) [Compound 54, 4-[2-(2,4-difluorophenyl)-2-methyl-2H-1,3-benzodioxol-4-yl]-1-[(3-{[(2S)-oxetan-2-yl]methyl}-6-[5-(trifluoromethyl)-4H-1,2,4-triazol-3-yl]-3H-imidazo[4,5-c]pyridin-2-yl)methyl]piperidine]
- EC50: < 1 nM

Compound: Cc1ccc(C2(C)Oc3cccc(C4CCN(Cc5nc6cc(-c7nnc(C(F)(F)F)[nH]7)ncc6n5C[C@@H]5CCO5)CC4)c3O2)cn1 (stereo partly drawn) [Compound 55, 2-methyl-5-[2-methyl-4-{1-[(3-{[(2S)-oxetan-2-yl]methyl}-6-[5-(trifluoromethyl)-4H-1,2,4-triazol-3-yl]-3H-imidazo[4,5-c]pyridin-2-yl)methyl]piperidin-4-yl}-2H-1,3-benzodioxol-2-yl]pyridine]
- EC50: < 1 nM
